The numbers were not newly measured in article PMC5992566 (Nanomedicine, 2018), which cites them from elsewhere.

The conditions of the data set: after a single parenteral dose.

Turning to `C[C@H]1CO[C@@H]2Cn3cc(C(=O)NCc4ccc(F)cc4F)c(=O)c(O)c3C(=O)N12` [Cabotegravir, cabotegravir], the Half-life is 21 to 50 days.
